According to ChEMBL document CHEMBL1121521, “Inhibitors of Bacillus subtilis DNA polymerase III. 6-Anilinouracils and 6-(alkylamino)uracils” (J Med Chem, 1980):

Legend:
[1] = target: DNA polymerase III PolC-type (Bacillus subtilis (strain 168)) (UniProt P13267); experiment: Degree of resistance is the ratio between inhibition of Bacillus subtilis DNA Polymerase III azp-12 and WT.
[2] = target: T1, DNA polymerase III PolC-type (Bacillus subtilis (strain 168), UniProt P13267); experiment: Inhibition against Bacillus subtilis DNA polymerase III (wild type)
Target sequence in this assay (P13267 whole entry): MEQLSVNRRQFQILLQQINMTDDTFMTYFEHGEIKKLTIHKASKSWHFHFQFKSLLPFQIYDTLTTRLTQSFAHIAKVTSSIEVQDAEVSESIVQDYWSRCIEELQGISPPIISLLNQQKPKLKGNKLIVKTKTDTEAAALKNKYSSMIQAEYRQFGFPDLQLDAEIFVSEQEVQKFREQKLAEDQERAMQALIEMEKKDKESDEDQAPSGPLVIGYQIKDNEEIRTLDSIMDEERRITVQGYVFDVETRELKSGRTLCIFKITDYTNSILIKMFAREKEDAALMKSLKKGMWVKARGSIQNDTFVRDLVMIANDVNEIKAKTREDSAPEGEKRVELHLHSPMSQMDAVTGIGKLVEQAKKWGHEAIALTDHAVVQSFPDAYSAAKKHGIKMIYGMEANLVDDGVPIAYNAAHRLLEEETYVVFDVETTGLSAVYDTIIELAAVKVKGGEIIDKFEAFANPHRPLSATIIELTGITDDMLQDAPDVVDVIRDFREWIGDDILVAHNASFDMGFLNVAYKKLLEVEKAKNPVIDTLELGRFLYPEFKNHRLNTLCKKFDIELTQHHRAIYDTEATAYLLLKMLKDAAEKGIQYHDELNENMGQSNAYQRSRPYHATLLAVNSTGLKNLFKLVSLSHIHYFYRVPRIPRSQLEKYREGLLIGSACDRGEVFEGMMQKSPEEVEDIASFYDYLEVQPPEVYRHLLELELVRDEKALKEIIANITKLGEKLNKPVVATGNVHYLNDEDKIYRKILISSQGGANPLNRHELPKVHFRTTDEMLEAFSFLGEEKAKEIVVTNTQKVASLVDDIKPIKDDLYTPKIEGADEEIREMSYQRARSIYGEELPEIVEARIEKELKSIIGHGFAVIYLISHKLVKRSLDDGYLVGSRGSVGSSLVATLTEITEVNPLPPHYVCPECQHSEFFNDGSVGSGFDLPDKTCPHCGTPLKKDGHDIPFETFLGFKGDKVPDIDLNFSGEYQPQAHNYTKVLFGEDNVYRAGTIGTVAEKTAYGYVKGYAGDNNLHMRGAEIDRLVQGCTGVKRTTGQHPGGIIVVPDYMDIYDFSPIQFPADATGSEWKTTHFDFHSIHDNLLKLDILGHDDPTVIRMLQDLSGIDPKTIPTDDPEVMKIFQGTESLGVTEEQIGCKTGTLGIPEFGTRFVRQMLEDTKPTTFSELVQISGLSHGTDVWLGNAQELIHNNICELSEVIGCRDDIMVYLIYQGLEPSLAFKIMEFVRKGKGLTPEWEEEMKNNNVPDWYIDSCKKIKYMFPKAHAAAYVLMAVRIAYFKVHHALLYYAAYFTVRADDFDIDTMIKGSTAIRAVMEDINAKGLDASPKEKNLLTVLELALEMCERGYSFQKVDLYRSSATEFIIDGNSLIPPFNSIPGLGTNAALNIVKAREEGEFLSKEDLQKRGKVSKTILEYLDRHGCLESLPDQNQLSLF

[3] = target: T1, DNA polymerase III PolC-type; experiment: Inhibition of Bacillus subtilis DNA polymerase III (wild type); NA = inactive (<10% inhibition at 1000 uM)
Target sequence in this assay (P13267 whole entry): as above

[4] = target: T1, DNA polymerase III PolC-type; experiment: Inhibition of Bacillus subtilis […](wild type); NA = inactive (<10% inhibition at 1000 uM)
Target sequence in this assay (P13267 whole entry): as above

[5] = target: T1, DNA polymerase III PolC-type; experiment: Inhibition of Bacillus subtilis DNA polymerase III (wild type)
Target sequence in this assay (P13267 whole entry): as above

[6] = target: T1, DNA polymerase III PolC-type; experiment: In vitro inhibition of Bacillus subtilis DNA Polymerase III/azp-12(mutant).
Target sequence in this assay (P13267 whole entry, looked up): as the sequence (P13267 whole entry) above

[7] = target: T1, DNA polymerase III PolC-type; experiment: Inhibition against Bacillus subtilis DNA Polymerase III/azp-12(mutant);NA = inactive (<10% inhibition at 1000 uM)
Target sequence in this assay (P13267 whole entry, looked up): as the sequence (P13267 whole entry) above

[8] = target: T1, DNA polymerase III PolC-type; experiment: Inhibition against Bacillus subtilis DNA Polymerase III/azp-12(mutant)
Target sequence in this assay (P13267 whole entry, looked up): as the sequence (P13267 whole entry) above

Chain of DNA polymerase III PolC-type (Bacillus subtilis (strain 168)) (P13267 whole entry): as above

SMILES | Ki [2] [µM] | Degree of resistance [1] | also measured
O=c1cc(Nc2ccc(Cl)cc2)[nH]c(=O)[nH]1 | – | 0.56 | –
Cc1ccccc1Nc1cc(O)nc(O)n1 | – | – | Ki [3]: Not Active
CCCNc1cc(O)nc(O)n1 | – | – | Ki [3]: Not Active
Cc1cc(Nc2cc(O)nc(O)n2)ccc1Br | – | 0.85 | –
CCc1ccccc1Nc1cc(O)nc(O)n1 | – | – | Ki [4]: Not Active
CCCCNc1cc(O)nc(O)n1 | – | – | Ki [5]: 5370 µM
Oc1cc(Nc2cccc(Cl)c2)nc(O)n1 | 25 | 1.7 | Ki [6]: 41.7 µM
CCc1ccc(Nc2cc(O)nc(O)n2)cc1 | – | 0.3 | –
Cc1ccc(Nc2cc(O)nc(O)n2)c(C)c1 | 1990 | – | –
Oc1cc(Nc2ccc3c(c2)CCC3)nc(O)n1 | 0.42 | – | –
Oc1cccc(Nc2cc(O)nc(O)n2)c1 | 2630 | – | Ki [7]: Not Active
Cc1ccc(C)c(Nc2cc(O)nc(O)n2)c1 | 1360 | – | –
CC(C)c1ccc(Nc2cc(O)nc(O)n2)cc1 | – | 0.065 | –
Cc1ccc(Nc2cc(O)nc(O)n2)cc1C | 0.92 | 3.9 | Ki [6]: 3.5 µM
Cc1ccc(Nc2cc(=O)[nH]c(=O)[nH]2)cc1N | 122 | – | Ki [8]: 298 µM
Cc1cc(C)c(Nc2cc(O)nc(O)n2)c(C)c1 | – | – | Ki [4]: Not Active
OCc1ccc(Nc2cc(O)nc(O)n2)cc1 | – | 0.6 | –
CCCc1ccc(Nc2cc(=O)[nH]c(=O)[nH]2)cc1 | 452 | – | Ki [6]: 54 µM
CCCCc1ccc(Nc2cc(O)nc(O)n2)cc1 | – | 0.4 | –

SMILES | Ki [2] [µM] | Degree of resistance [1] | also measured
CCCCCNc1cc(=O)[nH]c(=O)[nH]1 | – | – | Ki [5]: 335 µM
CCc1cccc(Nc2cc(O)nc(O)n2)c1 | – | 6.4 | –
Cc1cccc(Nc2cc(O)nc(O)n2)c1 | – | 4.2 | –
CCCc1ccc(Nc2cc(O)nc(O)n2)cc1 | – | 0.12 | –
Oc1cc(Nc2ccc(Br)cc2)nc(O)n1 | – | 0.13 | –
O=c1cc(Nc2cccc(CO)c2)[nH]c(=O)[nH]1 | 413 | – | Ki [6]: 5130 µM
Cc1ccc(Nc2cc(O)nc(O)n2)cc1 | – | 3.9 | –
Oc1cc(Nc2cccc(Br)c2)nc(O)n1 | 10.3 | 2.1 | Ki [6]: 21.9 µM
CCCCCCCCCCNc1cc(O)nc(O)n1 | – | – | Ki [4]: Not Active
Cc1cc(Nc2cc(=O)[nH]c(=O)[nH]2)ccc1N | 19 | – | Ki [8]: 158 µM
COc1ccc(Nc2cc(O)nc(O)n2)cc1 | 120 | 1 | Ki [6]: 120 µM
CCNc1cc(O)nc(O)n1 | – | – | Ki [4]: Not Active
OCc1cccc(Nc2cc(O)nc(O)n2)c1 | – | 12.4 | –
Cc1cccc(Nc2cc(=O)[nH]c(=O)[nH]2)c1 | 42.8 | – | Ki [6]: 178 µM
C=CCNc1cc(O)nc(O)n1 | – | – | Ki [5]: 22400 µM
Oc1cc(Nc2cccc(I)c2)nc(O)n1 | – | 4.3 | –
Oc1ccc(Nc2cc(O)nc(O)n2)cc1 | – | 2.2 | –
Nc1ccc(Nc2cc(=O)[nH]c(=O)[nH]2)cc1 | 640 | – | Ki [8]: 3900 µM

The next lines start with results.

Ki [2] [µM] | SMILES | Degree of resistance [1] | also measured
464 | CC(=O)Nc1ccc(Nc2cc(=O)[nH]c(=O)[nH]2)cc1C | – | –
0.93 | Oc1cc(Nc2ccc(Cl)c(Cl)c2)nc(O)n1 | – | –
124 | Cc1cc(C)cc(Nc2cc(=O)[nH]c(=O)[nH]2)c1 | – | –
7.6 | O=c1cc(Nc2cccc(CCl)c2)[nH]c(=O)[nH]1 | – | –
223 | Cc1cccc(Nc2cc(=O)[nH]c(=O)[nH]2)c1C | – | –
370 | CCCCCCNc1cc(=O)[nH]c(=O)[nH]1 | – | –
0.63 | Cc1ccc(Nc2cc(O)nc(O)n2)cc1Cl | – | –
6.8 | O=c1cc(Nc2ccc3ccccc3c2)[nH]c(=O)[nH]1 | – | –
2400 | CC(C)CCNc1cc(=O)[nH]c(=O)[nH]1 | – | –
0.26 | Cc1ccc(Nc2cc(O)nc(O)n2)cc1CCl | – | –
101 | O=c1cc(Nc2ccc(C(F)(F)F)cc2)[nH]c(=O)[nH]1 | – | –
460 | CC(=O)Nc1cc(Nc2cc(O)nc(O)n2)ccc1C | – | –
0.38 | Cc1ccc(Nc2cc(=O)[nH]c(=O)[nH]2)cc1I | – | –
82.6 | O=c1cc(Nc2cccc3ccccc23)[nH]c(=O)[nH]1 | – | –
78.5 | Cc1ccc(Nc2cc(=O)[nH]c(=O)[nH]2)cc1CO | – | –
13500 | O=c1cc(NCCCCCO)[nH]c(=O)[nH]1 | – | –
